The text below walks through data of patent US4070470A, “Platelet aggregation inhibiting carbostyrils, their compositions and method of use” (Otsuka Pharmaceutical Co., Ltd., priority 1974, dated 1978).

A value given as a limit tells only on which side of the number the result lay.

As a reminder, the inhibition is the drop in the measured response relative to a control, in per cent. Usually LD50 stands for the dose at which mortality reaches 50%. A higher LD50 goes with lower toxicity.

One series deals with blood platelets. As to conditions: at low concentrations; cited from earlier work.
A further series has as its system thrombosis. As to conditions: administered orally or intravenously to mammals including humans; cited from earlier work.
Series [1] deals with collagen-induced aggregation in rabbit platelet. The series can be described thus: Inhibition effect on collagen-induced aggregation in rabbit platelet. The series is classed as cell-based. The conditions noted are these: rabbit platelet (PRP); for inhibition at 100 µM / inhibition at 10 µM / inhibition at 1 µM / inhibition at 0.01 µM: Oryctolagus cuniculus, Platelet; for inhibition at 100 µM: 10^-4 M test compound solution; for inhibition at 0.01 µM: 10^-8 M test compound solution. The protocol:
(§1) The aggregation inhibitory activity was determined using an AG-II type aggregometer (made by Bryston Manufacturing Co.). A blood sample was withdrawn from rabbits as a mixture of sodium citrate and whole blood in a proportion of 1 : 9 by volume and centrifuged at 1000 rpm for 10 minutes to obtain a platelet rich plasma (PRP). The resulting PRP was separated, and the remaining blood sample was further centrifuged at 3000 rpm for 15 minutes to obtain a platelet poor plasma (PPP).
(§2) The number of platelets in the PRP was counted in accordance with the Brecher-Clonkite Method, and the PRP was diluted with the PPP to prepare a PRP sample containing platelets in an amount of 300,000/[…] for an adenosine diphosphate (ADP)-induced aggregation test and a PRP sample containing platelets in an amount of 450,000/[…] for a collagen-induced aggregation test.
(§3) 0.01 ml of a solution of a test compound having a predetermined concentration (as shown in the Tables below) was then added to 0.6 ml of the PRP sample obtained above and the mixture was incubated at a temperature of 37° C for 1 minute. Then 0.07 ml of an ADP or collagen solution was added to the mixture. The mixture was then subjected to a transmittance determination and changes in the transmittance of the mixture were recorded using aggregometer at a stirrer rotation rate of 1100 rpm. In this test, Auren Beronal buffer (pH 7.35) was used for the preparation of solutions of ADP, collagen and the test compounds. ADP was adjusted to a concentration of 7.5 × 10^-5 M, and the collagen solution was prepared by triturating 100 mg of collagen with 5 ml of the above buffer and the supernatant obtained was used as a collagen inducer. Adenosine and acetylsalicyclic acid were used as controls for the ADP-induced aggregation test and the collagen-induced aggregation test, respectively. The aggregation inhibitory activity was determined in terms of the percent inhibition (%) with respect to the aggregation ratio of controls. The aggregation ratio can be calculated by the following equation: [formula] Wherein: "a" is the optical density of the PRP,
(§4) "b" is the optical density of the PRP having incorporated therein a test compound and an aggregation inducer, and
(§5) "c" is the optical density of the PPP.

Series [2] relates to ADP-induced aggregation in rabbit platelet. Description: Inhibition effect on ADP-induced aggregation in rabbit platelet. Format: cell-based. As to conditions: rabbit platelet (PRP); for inhibition at 100 µM / inhibition at 10 µM / inhibition at 1 µM / inhibition at 0.01 µM / inhibition at 0.1 µM: Oryctolagus cuniculus, Platelet; for inhibition at 0.01 µM: 10^-8 M test compound solution. How it is done:
as §1, §2, §3, §4, §5

A short description of series [3]: Toxicity of benzcycloamide derivatives in mouse (LD50). As to conditions: in vivo. From the text:
All the benzcycloamide derivatives represented by the aforesaid general formulas (I) are novel compounds having excellent platelet aggregation-inhibiting effects and are useful as preventives for thrombosis. […] Compounds tested: [drawing 17]

In the case of `CC(C)(C)NCC(O)COc1cccc2c1CCC(=O)N2` (stereo not drawn) [5-(2'-hydroxy-3-tert-butylamino)-propoxy-3,4-dihydrocarbostyril], the “inhibition of the aggregation of blood platelets” value with blood platelets is on record as “at low concentrations could specifically inhibit the aggregation of blood platelets”. In the series on thrombosis, the “preventing and treating thrombosis” value is “very effective for preventing and treating thrombosis”.

For the compound `CCOC(=O)C(C)Oc1ccc2c(c1)CCC(=O)N2` (stereo not drawn) [A], the inhibition at 100 µM was found to be 71% in series [1] and 57% in series [2] (10^-4 M test compound solution). Further, the inhibition at 10 µM in series [1] (10^-5 M test compound solution) worked out at 20%; in series [2] (10^-5 M test compound solution) it was 25%. Further, the results for the inhibition at 1 µM in series [1] (10^-6 M test compound solution) and in series [2] (10^-6 M test compound solution) were 2% and 5%, respectively. Further, in series [1], the inhibition at 0.01 µM amounted to 0%.

For the compound `CCOC(=O)C(C)Oc1ccc2[nH]c(=O)ccc2c1` (stereo not drawn) [B], the inhibition at 100 µM in series [1] stood at 67%; in series [2] (10^-4 M test compound solution), 86%. Moreover, the inhibition at 10 µM is 12% in series [1] (10^-5 M test compound solution) and 54% in series [2] (10^-5 M test compound solution). The inhibition at 1 µM in series [1] (10^-6 M test compound solution) and in series [2] (10^-6 M test compound solution) was -6% in each case. For the same compound, the figures for the inhibition at 0.01 µM in series [1] and in series [2] were 0% and 14%, respectively.

With `CCOC(=O)C(C)Oc1ccc2c(c1)CCC(=O)N2C` (stereo not drawn) [C], the inhibition at 100 µM in series [1] and in series [2] (10^-4 M test compound solution) was 36% each time. The inhibition at 1 µM in series [1] (10^-6 M test compound solution) and in series [2] (10^-6 M test compound solution) was 0% throughout. The inhibition at 0.01 µM in series [1] and in series [2] was 9% each time.

On to `CCOC(=O)C(C)Oc1cccc2c1NC(=O)CC2` (stereo not drawn) [Compound M], for which the inhibition at 100 µM came to 5% in series [1] and 3% in series [2] (10^-4 M test compound solution). The inhibition at 1 µM in series [1] (10^-6 M test compound solution) came to 2%; in series [2] (10^-6 M test compound solution), 11%. Moreover, the inhibition at 0.01 µM is 7% in series [1] and 11% in series [2].

Consider `CCOC(=O)C(C)Oc1ccc2c(c1)NC(=O)CC2` (stereo not drawn) [D], for which the inhibition at 100 µM was 2% in series [1] and -18% in series [2] (10^-4 M test compound solution). The inhibition at 1 µM worked out at 8% in series [1] (10^-6 M test compound solution) and 14% in series [2] (10^-6 M test compound solution). Also, the inhibition at 0.01 µM in series [1] worked out at 3%; in series [2] it was 14%.

As for `CCOC(=O)CCCOc1ccc2c(c1)CCC(=O)N2` [E], the inhibition at 100 µM in series [1] came to 92%; in series [2] (10^-4 M test compound solution) it was 100%. Also, the inhibition at 10 µM in series [2] (10^-5 M test compound solution) turned out to be 97%. For the same compound, the LD50 in series [3] (Female mouse) and in series [3] (Male mouse) was above 1000 mg/kg in each case.

`CCCCCOC(=O)C(C)Oc1ccc2c(c1)CCC(=O)N2` (stereo not drawn) [F]: the inhibition at 100 µM in series [1] turned out to be 88%; in series [2] (10^-4 M test compound solution) it was 100%. Also, the inhibition at 10 µM was 8% in series [1] (10^-5 M test compound solution) and 79% in series [2] (10^-5 M test compound solution). Further, the inhibition at 1 µM in series [1] (10^-6 M test compound solution) is 0%; in series [2] (10^-6 M test compound solution), 20%.

With `CC(C)OC(=O)C(C)Oc1ccc2[nH]c(=O)ccc2c1` (stereo not drawn) [G], the inhibition at 100 µM in series [1] turned out to be 55%; in series [2] (10^-4 M test compound solution), 74%. Besides, the inhibition at 10 µM in series [1] (10^-5 M test compound solution) was found to be 25%; in series [2] (10^-5 M test compound solution) it was 38%. For the same compound, the values for the inhibition at 1 µM in series [1] (10^-6 M test compound solution) and in series [2] (10^-6 M test compound solution) were 3% and 7%, respectively.

With `CCOC(=O)CCCOc1cccc2c1CCC(=O)N2` [H], the inhibition at 100 µM was 90% in series [1] and 65% in series [2] (10^-4 M test compound solution). Moreover, the inhibition at 10 µM in series [1] (10^-5 M test compound solution) is 8%; in series [2] (10^-5 M test compound solution), 18%. Moreover, the inhibition at 1 µM in series [1] (10^-6 M test compound solution) turned out to be 5%; in series [2] (10^-6 M test compound solution), 2%.

`CCCCCOC(=O)CCCOc1ccc2c(c1)CCC(=O)N2` [I]: the inhibition at 100 µM in series [1] is 48%; in series [2] (10^-4 M test compound solution), 82%. The results for the inhibition at 10 µM in series [1] (10^-5 M test compound solution) and in series [2] (10^-5 M test compound solution) were 22% and 58%, respectively. Moreover, the values for the inhibition at 1 µM in series [1] (10^-6 M test compound solution) and in series [2] (10^-6 M test compound solution) were 6% and 0%, respectively. The inhibition at 0.1 µM in series [2] (10^-7 M test compound solution) stood at 8%.

With `CCOC(=O)CCCOc1ccc2c(c1)CCC(=O)N2` [J], the “Inhibition effect on collagen-induced aggregation” value in series [1] (10^-5 M test compound solution) came to 86%; in series [1] (10^-6 M test compound solution) it was 18%. The “Inhibition effect on ADP-induced aggregation” value was 100% in series [2] (10^-4 M test compound solution), 90% in series [2] (10^-5 M test compound solution), 25% in series [2] (10^-6 M test compound solution) and -4% in series [2] (10^-7 M test compound solution).

For `CCOC(=O)CCCCCCOc1ccc2c(c1)CCC(=O)N2` [K], the inhibition at 100 µM amounted to 31% in series [1] and 37% in series [2] (10^-4 M test compound solution). Besides, the figures for the inhibition at 10 µM in series [1] (10^-5 M test compound solution) and in series [2] (10^-5 M test compound solution) were 13% and 15%, respectively. In addition, the inhibition at 1 µM was found to be 6% in series [1] (10^-6 M test compound solution) and 10% in series [2] (10^-6 M test compound solution). The inhibition at 0.1 µM in series [2] (10^-7 M test compound solution) was found to be 7%. Besides, the LD50 in series [3] (Female mouse) lay in the range of 500 to 1000 mg/kg; in series [3] (Male mouse) it was 750 to 1000 mg/kg.

Consider `O=C(O)CCCCCCOc1ccc2c(c1)CCC(=O)N2` [L], for which the inhibition at 100 µM in series [1] amounted to 15%; in series [2] (10^-4 M test compound solution), 13%. The inhibition at 10 µM in series [1] (10^-5 M test compound solution) worked out at 14%; in series [2] (10^-5 M test compound solution), 8%. For the same compound, the inhibition at 1 µM in series [1] (10^-6 M test compound solution) amounted to 2%; in series [2] (10^-6 M test compound solution), 7%. Also, the inhibition at 0.1 µM in series [2] (10^-7 M test compound solution) is -10%.
